Values after ≈ are worked out from the molar mass of the structure shown. Read-outs that look alike come from different tables or passages of the source. Peptide text beside a SMILES is read from it.
What was measured:
Candida albicans = test: Binding of targeting peptides to Candida albicans; settings: tested at 3.13, 6.25, 12.5 and 25.0 μM in 1× PBS or HEPES/NaCl/MgCl2/0.1% CTAB
Protocol: The peptides in Table 6 were tested for binding efficiency at 3.13, 6.25, 12.5 and 25.0 μM concentrations in 1× phosphate-buffered saline or 20 mM HEPES (4-(2-hydroxyethyl)-1-piperazineethanesulfonic acid), 150 mM sodium chloride, 1 mM magnesium chloride and 0.1% CTAB.

S. pneumoniae = assay type: cell-based, Streptococcus pneumoniae
Protocol: In certain embodiments the MIC assays are performed as described herein in the Examples. For each organism, the media and growth conditions utilized is detailed in Table 8.
In certain embodiments the MIC assays are performed as follows: For each organism, the media and growth conditions utilized is detailed in Table 8.

Molecule | Target(s): form of Candida albicans bound (Candida albicans) | other results
DLRKAK (VVRRFQGM; Antimicrobial peptide and/or targeting peptide) [PF-024] | hyphae | 
RLTSNQFLTRITPFVFAQH [PF-176] | yeast cells | 
MPKARPVNHNKKKSKITIKSNFTLFYMFNP [PF-634] | hyphae | 
HARAAVGVAELPRGAAVEVELIAAVRP [1T-65] | hyphae | 
CC(C)C[C@H](NC(=O)[C@H](CC(C)C)NC(=O)[C@H](Cc1c[nH]cn1)NC(=O)[C@H](CC(N)=O)NC(=O)[C@H](CCCCN)NC(=O)[C@H](CC(C)C)NC(=O)[C@H](CO)NC(=O)[C@H](CCCNC(=N)N)NC(=O)[C@H](CO)NC(=O)[C@H](C)NC(=O)[C@H](CCC(N)=O)NC(=O)[C@H](CCCCN)NC(=O)[C@H](CO)NC(=O)[C@H](C)NC(=O)[C@H](CCC(N)=O)NC(=O)[C@H](CCCCN)NC(=O)[C@H](CO)NC(=O)[C@H](C)NC(=O)[C@H](CCC(N)=O)NC(=O)[C@H](CCCCN)NC(=O)[C@H](CO)NC(=O)[C@H](C)NC(=O)[C@H](CCC(N)=O)NC(=O)[C@H](CCCCN)NC(=O)[C@H](CO)NC(=O)[C@H](C)NC(=O)[C@H](CCC(N)=O)NC(=O)[C@H](CCCCN)NC(=O)[C@H](CO)NC(=O)[C@H](C)N)C(=O)O [PF-523] (H-ASKQASKQASKQASKQASKQASRSLKNHLL-OH; N-terminus and C-terminus assumed) |  | MIC (S. pneumoniae): 50 µM (≈ 161 µg/mL)
CC[C@H](C)[C@H](NC(=O)[C@H](CCC(=O)O)NC(=O)[C@@H]1CCCN1C(=O)[C@H](CCSC)NC(=O)[C@H](Cc1ccccc1)NC(=O)[C@@H](N)CO)C(=O)N[C@@H](CCC(N)=O)C(=O)N[C@@H](CCCCN)C(=O)N[C@@H](CC(N)=O)C(=O)N[C@H](C(=O)N[C@H](C(=O)N1CCC[C@H]1C(=O)N[C@H](C(=O)N[C@@H](CCC(N)=O)C(=O)N[C@@H](CCSC)C(=O)N[C@@H](CCCCN)C(=O)O)[C@@H](C)O)[C@@H](C)CC)[C@@H](C)O [PF-512] (H-SFMPEIQKNTIPTQMK-OH; N-terminus and C-terminus assumed) |  | MIC (S. pneumoniae; S. pneumoniae, TSB supplemented with 5% yeast extract, 37° C., 10% CO2, inoculum 10^6 CFU/ml, 18-24 h or 48 h): 50 µM (≈ 94.7 µg/mL)
RFFNFEIKKSTKVDYVFAHVDLSDV [PF-051] | hyphae | 
AIEGVIKKGACFKLLRHEMF [PF-167] | yeast cells | 
GVGIGFIMMGVVGYAVKLVHIPIRYLIV [PF-770] | hyphae | 
VYRHLRFIDGKLVEIRLERK [1T-36] | hyphae | 
EILNNNQVIKELTMKYKTQFESNLGGWTARARR [PF-580] | hyphae | 
VVRRFQGM [PF-141] | hyphae | 
NRQAQGERAHGEQQG [1T-70] | yeast cells | 
NILFGIIGFVVAMTAAVIVTAISIAK [PF-543] | hyphae | 
RLARGRPTNLCGRRG [PF-170] | yeast cells | 
LVRLA (NILFGIIGFVVAMTAAVIVTAISIAK; Antimicrobial peptide and/or targeting peptide) [PF-636] | hyphae | 
MIHLTKQNTMEALHFIKQFYDMFFILNFNV [PF-040] | hyphae | 
GGTKEIVYQRG [1T-68] | yeast cells | 
EVYSSPTNNVAITVQNN [PF-178] | hyphae | 
SKFELVNYASGCSCGADCKCASETECKCASKK [PF-761] | hyphae | 
KLRSASKKSLQEKSCGIMPEKPAG [PF-206] | hyphae | 
HSSHL (HARAAVGVAELPRGAAVEVELIAAVRP; Antimicrobial peptide and/or targeting peptide) [PF-060] | hyphae | 

— patent US20100184683A1, “ANTIBACTERIAL AND ANTIFUNGAL PEPTIDES” (C3 JIAN, INC., priority 2009, published 2010)
